EC50 and Emax data for six compounds are collected here from patent US20240208992A1, “MACROCYCLES AS CFTR MODULATORS” (Idorsia Pharmaceuticals Ltd, priority 2021, published 2024).

One may read the EC50 as the midpoint of the concentration-response curve. As usually defined, the Emax is the size of the effect at its maximum, as opposed to the concentration needed.

The experiment deals with human F508del-CFTR (Homo sapiens, UniProt P13569, DEL508-508). Kind of experiment: F508del-CFTR cell surface expression (corrector activity), DiscoveRx ß-galactosidase complementation chemiluminescence assay in recombinant U2OS cell line.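 For all read-outs here: U2OS cells co-expressing ProLink-tagged F508del-CFTR and a membrane-anchored enzyme acceptor, where more surface CFTR restores β-galactosidase activity measured by chemiluminescence.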 Particulars: for EC50: EC50, F508del-CFTR cell surface expression, U2OS cells, 16h compound incubation, geomean values; for Emax: U2OS, in relation to Emax of corrector lumacaftor (=100%), arithmetic mean values.
Sequence of human F508del-CFTR (P13569 with tags, fused parts or gaps DEL508-508): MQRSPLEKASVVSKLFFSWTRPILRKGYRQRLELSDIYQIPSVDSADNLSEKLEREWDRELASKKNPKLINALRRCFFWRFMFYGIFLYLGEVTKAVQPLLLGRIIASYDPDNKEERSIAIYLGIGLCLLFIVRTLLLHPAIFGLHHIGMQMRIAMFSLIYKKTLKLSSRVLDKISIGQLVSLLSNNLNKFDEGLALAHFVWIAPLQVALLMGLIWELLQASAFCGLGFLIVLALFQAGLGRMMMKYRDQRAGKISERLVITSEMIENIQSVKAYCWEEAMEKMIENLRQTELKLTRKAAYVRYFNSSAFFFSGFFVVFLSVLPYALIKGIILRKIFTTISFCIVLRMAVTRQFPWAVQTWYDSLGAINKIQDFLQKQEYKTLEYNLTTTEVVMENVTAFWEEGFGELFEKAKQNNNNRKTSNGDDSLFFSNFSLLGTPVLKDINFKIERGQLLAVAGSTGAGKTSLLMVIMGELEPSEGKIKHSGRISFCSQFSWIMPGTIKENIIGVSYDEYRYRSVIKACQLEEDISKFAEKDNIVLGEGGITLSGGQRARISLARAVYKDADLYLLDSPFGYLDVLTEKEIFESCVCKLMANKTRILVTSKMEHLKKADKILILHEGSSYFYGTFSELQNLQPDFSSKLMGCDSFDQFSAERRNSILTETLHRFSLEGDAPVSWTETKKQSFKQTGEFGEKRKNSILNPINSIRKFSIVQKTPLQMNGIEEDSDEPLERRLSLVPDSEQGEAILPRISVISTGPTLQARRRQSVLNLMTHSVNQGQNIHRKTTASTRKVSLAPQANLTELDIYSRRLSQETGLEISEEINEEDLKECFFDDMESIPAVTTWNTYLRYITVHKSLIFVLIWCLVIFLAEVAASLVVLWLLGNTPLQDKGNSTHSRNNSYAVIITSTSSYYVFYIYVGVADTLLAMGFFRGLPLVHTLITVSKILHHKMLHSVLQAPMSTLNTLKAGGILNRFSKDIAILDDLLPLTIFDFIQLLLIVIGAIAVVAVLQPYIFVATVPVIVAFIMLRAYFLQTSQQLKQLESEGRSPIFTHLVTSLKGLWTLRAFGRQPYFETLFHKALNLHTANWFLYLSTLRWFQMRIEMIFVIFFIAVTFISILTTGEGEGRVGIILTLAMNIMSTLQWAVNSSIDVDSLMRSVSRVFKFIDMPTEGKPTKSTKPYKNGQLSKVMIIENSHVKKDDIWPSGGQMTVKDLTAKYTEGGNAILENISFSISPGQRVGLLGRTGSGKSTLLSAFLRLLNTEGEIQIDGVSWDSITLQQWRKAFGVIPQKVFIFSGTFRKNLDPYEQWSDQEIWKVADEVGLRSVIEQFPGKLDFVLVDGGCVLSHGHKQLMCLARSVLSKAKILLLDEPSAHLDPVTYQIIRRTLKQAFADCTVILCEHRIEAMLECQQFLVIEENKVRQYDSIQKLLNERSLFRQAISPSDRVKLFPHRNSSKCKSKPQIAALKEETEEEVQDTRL

Each structure is given as a SMILES string.

For the compound `Cc1cc(CCNC(=O)[C@@H]2CC(=O)N(C)[C@@H](CC(C)C)C(=O)N(C)C3(Cc4ccccc4C3)C(=O)N[C@H](Cc3ccccc3)COc3cnc4ccccc4c3C(=O)N2)on1` [Example 495, (3′S,7′S,13′R)-13′-benzyl-7′-isobutyl-6′,9′-dimethyl-N-(2-(3-methylisoxazol-5-yl)ethyl)-1′,5′,8′,11′-tetraoxo-1,2′,3,3′,4′,5′,6′,7′,8′,9′,11′,12′,13′,14′-tetradecahydro-1′H-spiro[indene-2,10′-[1]oxa[4,7,10,14]tetraazacycloheptadecino[17,16-c]quinoline]-3′-carboxamide], the EC50 is 296 nM and the Emax was 207%.
The corresponding values for `CC(C)C[C@H]1C(=O)N(C)C2(CC2)C(=O)N[C@H](Cc2ccccc2)COc2cnc3ccccc3c2C(=O)N[C@H](C(=O)NCCc2ccc(-c3ncccn3)cc2)CC(=O)N1C` [Example 496, (3′S,7′S,13′R)-13′-benzyl-7′-isobutyl-6′,9′-dimethyl-1′,5′,8′,11′-tetraoxo-N-(4-(pyrimidin-2-yl)phenethyl)-2′,3′,4′,5′,6′,7′,8′,9′,11′,12′,13′,14′-dodecahydro-1′H-spiro[cyclopropane-1,10′-[1]oxa[4,7,10,14]tetraazacycloheptadecino[17,16-c]quinoline]-3′-carboxamide] are 523 nM and 317%.
On to `CC(C)C[C@H]1C(=O)N2CCCC[C@H]2C(=O)N[C@H](Cc2ccccc2)COc2cnc3c(F)cccc3c2C(=O)N[C@H](C(=O)NCCc2cc(C3CC3)on2)CC(=O)N1C` [Example 497, (9S,13S,19aS,22R)-22-benzyl-N-(2-(5-cyclopropylisoxazol-3-yl)ethyl)-3-fluoro-13-isobutyl-12-methyl-7,11,14,20-tetraoxo-7,8,9,10,11,12,13,14,17,18,19,19a,20,21,22,23-hexadecahydro-16H-pyrido[2′,1′:6,7][1]oxa[4,7,10,14]tetraazacycloheptadecino[17,16-c]quinoline-9-carboxamide], for which the EC50 is 535 nM and the Emax came to 171%.
The corresponding values for `CC(C)C[C@H]1C(=O)N2CCCC[C@@H]2C(=O)N[C@H](Cc2ccccc2)COc2cnc3c(F)cccc3c2C(=O)N[C@H](C(=O)NCCc2noc(C3CC3)n2)CC(=O)N1C` [Example 498, (9S,13S,19aR,22R)-22-benzyl-N-(2-(5-cyclopropyl-1,2,4-oxadiazol-3-yl)ethyl)-3-fluoro-13-isobutyl-12-methyl-7,11,14,20-tetraoxo-7,8,9,10,11,12,13,14,17,18,19,19a,20,21,22,23-hexadecahydro-16H-pyrido[2′,11:6,7][1]oxa[4,7,10,14]tetraazacycloheptadecino[17,16-c]quinoline-9-carboxamide] are 198 nM and 313%.
The corresponding values for `CC(C)C[C@H]1C(=O)N2CCCC[C@@H]2C(=O)N[C@H](Cc2ccccc2)COc2cnc3c(F)cccc3c2C(=O)N[C@H](C(=O)NCCc2cc(C3CC3)no2)CC(=O)N1C` [Example 499, (9S,13S,19aR,22R)-22-benzyl-N-(2-(3-cyclopropylisoxazol-5-yl)ethyl)-3-fluoro-13-isobutyl-12-methyl-7,11,14,20-tetraoxo-7,8,9,10,11,12,13,14,17,18,19,19a,20,21,22,23-hexadecahydro-16H-pyrido[2′,11:6,7][1]oxa[4,7,10,14]tetraazacycloheptadecino[17,16-c]quinoline-9-carboxamide] are 189 nM and 321%.
The corresponding values for `CC(C)C[C@H]1C(=O)N2CCCC[C@H]2C(=O)N[C@H](Cc2ccccc2)COc2cnc3c(F)cccc3c2C(=O)N[C@H](C(=O)NCCc2cc(C3CC3)no2)CC(=O)N1C` [Example 500, (9S,13S,19aS,22R)-22-benzyl-N-(2-(3-cyclopropylisoxazol-5-yl)ethyl)-3-fluoro-13-isobutyl-12-methyl-7,11,14,20-tetraoxo-7,8,9,10,11,12,13,14,17,18,19,19a,20,21,22,23-hexadecahydro-16H-pyrido[2′,1′:6,7][1]oxa[4,7,10,14]tetraazacycloheptadecino[17,16-c]quinoline-9-carboxamide] are 553 nM and 199%.
